This is an account of results in US20050197364A1, “Amide compounds as ion channel ligands and uses thereof” (priority 2003, published 2005).

The data set is described as follows: Pharmacokinetic profile after intravenous and oral administration. In kind it is in vivo. Particulars: male, Sprague-Dawley, rat, plasma, rats, IV 1 mg/kg and oral 5 mg/kg. Here is the method: The pharmacokinetic profile of Compound 18 was evaluated following intravenous and oral administration in rats. Sprague-Dawley male rats obtained from Charles River, San Diego, Calif. were acclimated for 24 hours. Compound 18 was formulated at a concentration of 0.5 mg/mL for IV administration at a 1 mg/kg dose and 1 mg/mL for oral administration at a 5 mg/kg dose. All animals were weighed before dosing. The body weight was used to calculate the actual dose for each animal. The intravenous dose was administered through the jugular vein catheter in less than 1 minute. The oral dose volume was 1.5 ml for all PO rats administered through oral […]. […] For PO dosing, blood samples were collected using a pre-heparinized syringe via the carotid artery catheter before dosing and at t=5, 15, 30, 60, 120, 180, 360, and 480 minutes post dosing. 250 uL of blood was obtained at each time point from each animal. Equal volumes of 0.9% normal saline were replaced to prevent dehydration. The whole blood samples were maintained on ice until centrifugation. Blood samples were centrifuged at 14,000 rpm for 10 minutes at 4° C., and the upper plasma layer was transferred into a clean vial and store at −80° C. The plasma was analyzed.

Consider `O=C(Nc1ccc(C(F)(F)F)cc1)c1ccc(-c2ncccc2Cl)cc1` [Compound 18, 4-(3-Chloropyridin-2-yl)-N-(4-trifluoromethyl-phenyl)benzamide], for which the Cmax (as a rule, the highest concentration seen after dosing) is 1750 nM and the Tmax – broadly, the time from dosing to the highest level – was 3 h. Where the note is “read-out: Clearance (Cl) (converted)”, the clearance is 8.83 mL/min/kg. Besides, the bioavailability (as a rule, the share of a dose that reaches the circulation, judged against a reference dose that is usually intravenous) (read-out: Oral Bioavailability (%F)) came to 30.1%. For the same compound, where the note is “read-out: Volume of distribution (Vd)”, the Vd was 2.82 L/kg. In addition, the half-life (read-out: half life (t1/2) (converted)) was 3.71 h.
